Assay results as given in publication PMC8369502, “High-Throughput Drug Screening System Based on Human Induced Pluripotent Stem Cell-Derived Atrial Myocytes ∼ A Novel Platform to Detect Cardiac Toxicity for Atrial Arrhythmias” (Frontiers in Pharmacology, 2021).
“Also recorded” adds a separate entry of the source. Like-named read-outs stand apart in the source and are kept apart here.

Key:
[1] = test system: CT (control hiPS-CMs without RA, ventricular-like); assay: High-throughput membrane potential recording (FluoVolt, FDSS/μCell) in CT; type: cell-based, human; settings: for Falling Slope / PWD30cF / PWD80cF / Rising Slope: % change from value before compound addition, 10 min after addition (Bay K 8644: 3 min); for rising slope of membrane potential (in words) / falling slope of membrane potential (in words) / beating rate (in words): concentration range as stated in the source
Protocol: (§1) Using a high-throughput screening system (FDSS/μCell), we assessed the drug toxicity of several experimental drugs on hiPS-derived atrial myocytes as well as control hiPS-derived cardiomyocytes. Membrane potential was used as one of the parameters during the assessment.
(§2) After purification, hiPS-derived cardiomyocytes were plated in 96-well plates for downstream drug response assessment using FluoVolt™ Membrane Potential Kit. […] The comparison of variance in the response of drug administration in CT and AM was represented by the percentage of changes based on their baseline values respectively.
(§3) FluoVolt™ Membrane Potential Kit (ThermoFisher […], F10488, Massachusetts, United States) was used to measure membrane potentials. The basic procedure was performed in accordance with the manufacturer’s instructions. […] MP were recorded at excitation and emission stages at wavelengths of 470 and 540 nm, respectively. […] Stock solutions of the test compounds were prepared in 100% DMSO, and serially diluted 1/40 into compound plates for testing (0.5% DMSO was the maximum concentration in all wells). The compounds were automatically pipetted from the compound plate, and 12 μL was loaded in the wells already containing the cells with 48 μL of media. Recording data were analyzed using Waveform Analysis of Cardiomyocyte Software (Ver.1.2.1J, Hamamatsu Photonics K.K.). Data values for a well were averaged from waveforms that arose during 30 s. The beat rate (BR; beats per minute), waveform amplitude (AMP), and duration at 30, 50, and 80% of decay (PWD30, PWD 50, and PWD 80, respectively) were used as evaluation parameters. PWDs were corrected using the Fridericia formula. PWD30-80 was calculated as the difference between PWD80 and PWD30. Each parameter was calculated as percentage change (%) from the value before test compound addition.

[2] = test system: AM (RA-treated hiPS-CMs, atrial-like); assay: High-throughput membrane potential recording (FluoVolt, FDSS/μCell) in AM; type: cell-based, human; settings: for PWD30cF / Rising Slope / PWD80cF / Falling Slope / Beat Rate: % change from value before compound addition, 10 min after addition (Bay K 8644: 3 min); for rising slope of membrane potential (in words) / falling slope of membrane potential (in words) / beating rate (in words): concentration range as stated in the source; for cessation of beating (samples): 0.1 μM doses; for arrest of spontaneous beating (samples): at the maximal concentration
Protocol: as §1, §2, §3

| SMILES | membrane potential duration (in words) [1] | Falling Slope [1] | PWD30cF [1] | PWD80cF [1] | Rising Slope [1] | rising slope of membrane potential (in words) [1] | membrane potential duration (in words) [2] | PWD30cF [2] | Rising Slope [2] | rising slope of membrane potential (in words) [2] | PWD80cF [2] | falling slope of membrane potential (in words) [1] | Falling Slope [2] | falling slope of membrane potential (in words) [2] | Beat Rate [2] | beating rate (in words) [2] | beating rate (in words) [1] | also measured |
| --- | --- | --- | --- | --- | --- | --- | --- | --- | --- | --- | --- | --- | --- | --- | --- | --- | --- | --- |
| CCS(=O)(=O)N(C)[C@H]1c2cc(C#N)ccc2OC(C)(C)[C@@H]1O (racemic) [Chromanol 293B] | increase | ↓ | ↑ | ↑ | ↓ | dose-dependent decrease | increase | ↑ | ↓ | dose-dependent decrease |  |  |  |  |  |  |  |  |
| Nc1ccncc1 [4-Aminopridine, 4-Aminopyridine] |  |  | ↑ |  |  |  |  | ↑ |  |  | ↑ |  |  |  |  |  |  | PWD30cF (in words) ([2]; listed as 4-AP): dose-dependent increases; PWD50cF (in words) ([2]; listed as 4-AP): dose-dependent increases; PWD30cF (in words) ([2]; listed as 4AP): prolongation; PWD50cF (in words) ([2]; listed as 4AP): prolongation |
| COC(=O)C1=C(C)NC(C)=C([N+](=O)[O-])C1c1ccccc1C(F)(F)F (stereo not shown) [Bay K 8644] | prolonged | ↓ | ↑ | ↑ |  |  | prolonged | ↑ | ↑ |  | ↑ | dose-dependent decrease | ↓ | dose-dependent decrease |  |  |  | PWD30cF (in words) [1]: prolonged; PWD30cF (in words) ([1]; listed as Bay K8644): prolonged significantly; PWD30cF (in words) [2]: prolonged; PWD30cF (in words) ([2]; listed as Bay K8644): prolonged significantly |
| C[N+](C)(C)CCOC(N)=O [Carbachol] |  |  |  |  |  |  |  |  | ↓ | decrease |  |  |  |  | ↓ | decrease |  | EAD / irregular beating (in words) [1]: No irregular beating or EAD was elicited; response of membrane potential parameters (in words) [1]: no significant difference was observed; EAD / irregular beating (in words) [2]: No irregular beating or EAD was elicited; EAD / irregular beating (in words) ([2]; listed as carbachol): caused irregular beats early after application |
| COc1ccc([C@@H]2Sc3ccccc3N(CCN(C)C)C(=O)[C@@H]2OC(C)=O)cc1 [Diltiazem] | decreased | ↑ | ↓ | ↓ |  |  |  | ↓ |  |  |  | dose-dependent increases |  |  | ↑ | dose-dependent increase | dose-dependent increases | other parameters of membrane potential (in words) [2]: no obvious changes were observed; cessation of beating (samples) [2]: all the AM samples; incidence of arrhythmia-like waveforms: arrest ([2]; 1 μM): 100%; arrest of spontaneous beating (samples) [2]: all the tested samples |
| Cc1cccc(CCN2CCC(C(=O)c3ccc(NS(C)(=O)=O)cc3)CC2)n1 [E-4031] | increase | ↓ | ↓ | ↑ | ↓ | dose-dependent decrease | increase |  | ↓ | dose-dependent decrease | ↑ | dose-dependent decrease | ↓ | dose-dependent decrease | ↓ | dose-dependent decrease | dose-dependent decrease | PWD30-80 (in words) [1]: prolonged; also recorded: dose-dependent increases; PWD80cF (in words) [1]: prolonged; also recorded: dose-dependent increases; PWD30-80 (in words) [2]: prolonged; also recorded: dose-dependent increases; PWD80cF (in words) [2]: prolonged; also recorded: dose-dependent increases |
| CC(C)NCC(O)COc1cccc2ccccc12 (stereo not shown) [Propranolol] |  | ↓ | ↓ | ↑ | ↓ | dose-dependent decrease |  |  | ↓ | dose-dependent decrease | ↑ | dose-dependent decrease | ↓ | dose-dependent decrease | ↓ | dose-dependent decrease | dose-dependent decrease | PWD30-80 (in words) [1]: prolonged; PWD80cF (in words) [1]: prolonged; concentration at which irregular beating or EAD appeared [1]: above 10 μM; incidence of arrhythmia-like waveforms: EAD ([1]; 10 μM): 25%; incidence of arrhythmia-like waveforms: irregular beat ([1]; 10 μM): 17%; incidence of arrhythmia-like waveforms: EAD ([1]; 30 μM): 42%; incidence of arrhythmia-like waveforms: arrest ([1]; 30 μM): 17%; incidence of arrhythmia-like waveforms: irregular beat ([1]; 30 μM): 8%; incidence of arrhythmia-like waveforms: arrest ([1]; 100 μM): 100%; PWD30-80 (in words) [2]: prolonged; PWD80cF (in words) [2]: prolonged; incidence of arrhythmia-like waveforms: irregular beat ([2]; 10 μM): 11%; irregular beating (samples) ([2]; 10 μM, count of samples): 1 out of 9; incidence of arrhythmia-like waveforms: arrest ([2]; 30 μM): 100%; incidence of arrhythmia-like waveforms: arrest ([2]; 100 μM): 100% |
| COc1ccc(CCN(C)CCCC(C#N)(c2ccc(OC)c(OC)c2)C(C)C)cc1OC (stereo not shown) [Verapamil] | decreased | ↑ | ↓ | ↓ | ↓ |  |  |  |  |  |  | dose-dependent increases |  |  | ↑ | dose-dependent increase | dose-dependent increases | other parameters of membrane potential (in words) [2]: no obvious changes were observed; incidence of arrhythmia-like waveforms: arrest ([2]; 0.1 μM): 100%; cessation of beating (samples) [2]: all the AM samples; arrest of spontaneous beating (samples) [2]: all the tested samples |
